Read-outs that look alike come from different tables or passages of the source.
Assays:
A431 line = assay: MTT antiproliferative test, A431; format: cell-based, human; settings: A-431, read-out: IC50, inhibition of proliferation
Experimental: (§1) The lines MDAMB-435 and A431 are seeded at a density of 3000 cells per well in 96-well plates. After 24 hours, compounds 4.2a and 5.6d resuspended in 100% DMSO are added at concentrations of 0-0.001-0.010-0.1-1-10-50 μM for a final constant amount of DMSO of 0.3%. The cultures are maintained for a further 72 hours and an MTT colorimetric test is then performed. 100 μl of a solution of MTT at 5 mg/ml in PBS are added to the culture medium, which is left to incubate for 3 hours. The culture medium is removed and the cells are lyzed by adding 100 μL of a 4 mM HCl solvent, 0.1% Nondet P-40 (NP40) in isopropanol. The yellow tetrazolium MTT salt (3-(4,5-dimethylthiazol-2-yl)-2,5-diphenyl tetrazolium bromide), when it is reduced by the mitochondrial succinate dehydrogenase of active live cells, forms a blue-violet formazan product. The medium then changes from yellow to blue-violet. The intensity of this coloration at 590 nm is proportional to the number of live cells present during the test and gives an indication of the metabolic activity of these cells.
(§2) Table 1 gives the concentration values for 50% inhibition of proliferation (IC50) for compounds 4.2a and 5.6d on lines derived from bowel cancer (CaCo2), skin cancer (A431, MDAMB-435, B16F10), breast cancer (MDAMB-431), […] (HuH7), prostate cancer (DU145) and brain cancer (SNB75, Gli4, Gli7).

CaCo2 = assay: MTT antiproliferative test, CaCo2; format: cell-based; settings: Homo sapiens, Caco-2, read-out: IC50, inhibition of proliferation
Experimental: as §1, §2

MDAMB-231 = assay: MTT antiproliferative test, MDAMB-231; format: cell-based; settings: Homo sapiens, MDA-MB-231, read-out: IC50, inhibition of proliferation
Experimental: as §1, §2

MDAMB-435 melanoma line = assay: MTT antiproliferative test, MDAMB-435; format: cell-based; settings: Homo sapiens, MDA-MB-435, 72 hours, read-out: IC50, inhibition of proliferation
Experimental: as §1, §2

HuH7 = assay: MTT antiproliferative test, HuH7; format: cell-based; settings: Homo sapiens, Huh-7, read-out: IC50, inhibition of proliferation
Experimental: as §1, §2

B16F10 = assay: MTT antiproliferative test, B16F10; format: cell-based; settings: Mus musculus, B16-F10, read-out: IC50, inhibition of proliferation
Experimental: as §1, §2

DU145 = assay: MTT antiproliferative test, DU145; format: cell-based; settings: Homo sapiens, DU-145, read-out: IC50, inhibition of proliferation
Experimental: as §1, §2

C6 glioblastoma line = assay: MTT antiproliferative test, C6; format: cell-based; settings: Rattus norvegicus, read-out: IC50, inhibition of proliferation
Experimental: (§3) Several cancer cell lines were used for the in vivo or in vitro biological tests: • SNB75 is a human glioblastoma line derived from a primary culture, i.e. derived from a primary malignant cancer tumor. It forms part of the panel of 59 cancer lines referenced by the NCI. Its Cosmic reference number published by the Welcome Trust Sanger Institute is 905982. This line was supplied by a person (M.D. Ph.D of the department of “Radiation Oncology”, Stanford University Medical Center). It was cultured in Ham's F-12 and DMEM (1/1) supplemented with 10% fetal bovine serum. The experiments were performed with cells in the exponential growth phase. • Gli4 (or Gli4F11) and Gli7 are cultures of cancer strain cells derived from human glioblastomas (primary cultures). These lines are CD133^+, CD15^+ which are multipotent and tumorigenic in animals. They were established by J. P. Hugnot (INM INSERM U-1051 Eq. 4), and described in Guichet, P. O. et al, Glia 2013, 61(2), 225-239; • C6 is a rat glioblastoma line. It is referenced in the ATCC under the reference CCL-107. • MDAMB-435 is a melanoma line derived from a mammary melanoma. It forms part of the panel of 59 cancer lines referenced by the NCI. It is referenced at the ATCC under the reference HTB-129. It was cultured in Ham's F-12 and DMEM (1/1) supplemented with 10% fetal bovine serum. […]

SNB75 glioblastoma line = assay: MTT antiproliferative test, SNB75; format: cell-based; settings: Homo sapiens, SNB-75, read-out: IC50, inhibition of proliferation
Experimental: as §3

GLi4 = assay: MTT antiproliferative test, Gli4; format: cell-based; settings: Homo sapiens, read-out: IC50, inhibition of proliferation
Experimental: as §3

Gli7 = assay: MTT antiproliferative test, Gli7; format: cell-based; settings: Homo sapiens, read-out: IC50, inhibition of proliferation
Experimental: as §3

[1] = test system: epidermoid cancer line A431; assay: Boyden chamber migration test, A431; format: cell-based, human; settings: for Ki: 24 hours, read-out: Inhibition constant Ki, migration
Experimental: (§4) The effects of compounds 3.48a, 4.2a and 5.6d on the migration of cancer cells (human glioblastoma line SNB75 or primary culture of human glioblastoma Gli4F1, on the one hand, and MDAMB 435 and A431 on the other hand), were determined by performing a standard migration test in a Boyden chamber (treatment of the cells for 24 hours).
(§5) For this test, the compounds were dissolved in vitro and used in culture in 0.3% of DMSO. The interior of the inserts was covered with the extracellular matrix protein studied (laminin-1, vitronectin or fibronectin). The cells pretreated at various concentrations and untreated (controls) were deposited in the inserts covered with said protein at a rate of 50 000 cells/500 μl/insert in a medium containing 0.1% of BSA (bovine serum albumin).
(§6) 500 μl of medium containing 10% fetal calf serum were then placed in each well of a Companion plate so as to allow the formation of a chemotactic gradient across the porous membrane. After 24 hours of migration in the incubator at 37° C., the supernatent was removed and the inserts rinsed with PBS on each face. The cells were counted with a microscope (Zeiss Axiophot, magnification ×200). This gives a percentage of migration relative to the untreated cells.
(§7) Table 2 below gives, for compound 3.48a, the values for the inhibition constants (Ki) for the migration of a human GBM line (SNB75), of GBM stem cell lines (Gli4, Gli7) and of a breast cancer line MDAMB231, in a Boyden chamber, on various extracellular matrix protein supports. Tables 3 and 4 below give, for compounds 4.2a and 5.6d, the values of the inhibition constants (Ki) for the migration of a melanoma line (MDAMB-435) or of an epidermoid cancer line (A431), in a Boyden chamber, on various extracellular matrix protein supports. The inhibitory effect depends on the line and the stem cells used, but also on the extracellular matrix protein support used.

SNB75 cells = assay: SNB75 subcutaneous model; format: in vivo, mice
Experimental: Nude female mice 4-5 weeks old with an average weight of […], supplied by the R. Janvier breeding center, were used. The mice were kept in a pathogen-free environment and with food and water present ad libitum. The experiments were commenced after one week of acclimatizing the mice to their new environment.
A suspension of 5×10^6 SNB75 cells in 100 μl of sterile PBS (phosphate-buffered saline, provided by Fisher) was injected into each mouse (subcutaneous administration without anesthesia). Once the mice presented tumors with volumes of between […], groups were formed so that each of them contained an equivalent number of large, medium and small tumors. The protocol was conducted with five groups of seven mice. The five groups of mice were treated using one of the five formulations described below:
Group A: Treatment by injection of 100 μl of NaCl (control N° 1).
Group B: Treatment with compound 3.48a at a rate of 10 mg/kg with volumes of 100 to 150 μl of formulation 2 according to the weight of the mice.
Group C: Treatment with compound 3.48a at a rate of 5 mg/kg with volumes of 100 to 150 μl of formulation 2 according to the weight of the mice.
Group D: Treatment with temozolomide at a rate of 20 mg/kg with volumes of 100 to 150 μl according to the weight of the mice. Temozolomide is a comparative anticancer active principle sold under the name Temodal by the laboratory Schering Plough. It is indicated for treating glioblastoma multiforme.
Group E: Treatment by injection of 100 to 150 μl according to the weight of the mice of formulation 2 not containing compound 3.48a (control N° 2).
Each batch was treated by intravenous injection into the caudal vein of 100 to 150 μl of solution (precision syringe and G25X1 needle ultrafine wall, VWR). Three injections per week for four weeks were performed. The mice were weighed at each injection. The sizes of the tumors were measured twice a week for a period of four weeks. The mice were sacrificed after four weeks and the tumors and organs (liver, kidney, spleen, brain, intestine, heart, muscles) were removed. A histological analysis was performed on these organs.

SNB75 human GBM line = assay: Boyden chamber migration test, SNB75; format: cell-based; settings: for Ki: SNB75, 24 hours, read-out: Inhibition constant Ki, migration
Experimental: as §4, §5, §6, §7

Gli4 GBM stem cells = assay: Boyden chamber migration test, Gli4; format: cell-based, human; settings: 24 hours, read-out: Inhibition constant Ki, migration
Experimental: as §4, §5, §6, §7

Gli7 GBM stem cells = assay: Boyden chamber migration test, Gli7; format: cell-based, human; settings: 24 hours, read-out: Inhibition constant Ki, migration
Experimental: as §4, §5, §6, §7

GBM line C6 = assay: Boyden chamber migration test, C6; format: cell-based, rat; settings: various extracellular matrix substrates
Acute in vivo toxicity = settings: healthy mice; 50, 25, 10, 5 and 1 mg/kg; maximum dose 50 mg/kg
Experimental: Studies of the acute toxicity of compounds 3.48a and 4.2a were performed on healthy mice for a concentration range of 50, 25, 10, 5 and 1 mg/kg.

Gli4 cells = assay: Gli4 intracranial model; format: in vivo, mice
Experimental: 2×10^5 Gli4 cells were injected into a group of mice (right striatal injection, injection coordinates: bregma 0 L-L: L: −1.5 mm P: −3.5-2.5). The mice were immediately treated for four weeks at a rate of three injections at 10 mg/kg of compound 3.48a per week (formulation 1, group B) or using 100 μl of NaCl according to the same treatment protocol (group A) and sacrificed after ten weeks.
In the group of control mice (group A), dispersed Gli4 cells are observed, which migrated along the corpus callosum and passed into the other hemisphere. […] This migration reflects migration along the white matter, as observed in human glioblastoma multiformes (dispersion as an intra-fascicular growth along the white matter).

[2] = Solubility / formulation behaviour; format: physicochemical
Experimental: The following two formulations are particularly suited to compounds 3.48a and 4.2a and allow their in vivo administration, at concentrations of about 20-100 mg/kg, intravenously: […]

[3] = 10 and 5 mg/kg i.v. (groups B and C), three injections per week for four weeks

Work on `CC(=O)N[C@@H]1[C@H]2OC(C)(C)O[C@H]2[C@@H]([C@H]2COC(C)(C)O2)O[P@@]1(=O)c1ccccc1` [Compound 5.6d] yielded an IC50 (A431 line; A431 line (human epidermoid cancer)) of 100 nM, an IC50 (A431 line; Homo sapiens, A431, 72 hours, MTT) of 130 nM and an IC50 (CaCo2) of 36000 nM. The IC50 (MDAMB-231) was 23200 nM, the IC50 (MDAMB-435 melanoma line) was 9610 nM and the IC50 (HuH7) was 22000 nM. The IC50 (B16F10) was 14900 nM, the IC50 (DU145) was 31200 nM and the IC50 (C6 glioblastoma line) was 650 nM. The IC50 (SNB75 glioblastoma line) was 650 nM, the IC50 (GLi4) was 540 nM and the IC50 (Gli7) was 500 nM. It also gave an IC50 ([1]; Homo sapiens, A-431, on fibronectin or vitronectin, read-out: Concentration for a 50% decrease in migration of the cancer cells) of 10 to 100 nM, a Ki ([1]; support Fibronectin) of 8 nM and a Ki ([1]; support Laminin) of 13 nM. It also gave a Ki ([1]; support Vitronectin) of 20 nM.

With `Cn1nnc2c(C(N)=O)ncn2c1=O` [temozolomide, reference compound] the Weight loss (SNB75 cells; 20 mg/kg i.v. (group D), remaining four mice) was “substantial weight losses”, the Mortality (SNB75 cells; 20 mg/kg i.v. (group D), seven mice) was “three of the seven mice died after the third injection” and the “Lethality at higher dose” value (SNB75 cells; dose of 40 mg/kg) was “leads to the death of the mice before the end of the experimentation period”.

For `O=[P@@]1(c2ccccc2)O[C@H](COCc2ccccc2)[C@@H](OCc2ccccc2)[C@H](OCc2ccccc2)[C@H]1O` [Compound 3.48a, 4,5-bis-benzyloxy-6-benzyloxymethyl-2-phenyl-2-oxo-2λ^5-[1,2]oxaphosphinan-3-ol], the IC50 (SNB75 human GBM line; Homo sapiens, SNB-75, SNB75 line, on fibronectin or vitronectin, read-out: Concentration for a 50% decrease in migration of the cancer cells) was 1 to 100 nM, the Ki (SNB75 human GBM line; support Fibronectin) was 27 nM and the Ki (SNB75 human GBM line; support Laminin) was 23000 nM. It also gave a Ki (SNB75 human GBM line; support Vitronectin) of 87 nM, a Ki (Gli4 GBM stem cells; support Fibronectin) of 1 nM and a Ki (Gli4 GBM stem cells; support Laminin) of 11 nM. For the same molecule, the Ki (Gli4 GBM stem cells; support Vitronectin) was 5 nM, the Ki (Gli7 GBM stem cells; support Fibronectin) was 37 nM and the Ki (Gli7 GBM stem cells; support Laminin) was 310 nM. For the same molecule, the Ki (Gli7 GBM stem cells; support Vitronectin) was 371 nM, the “Inhibition of cell migration” value (GBM line C6) was “inhibits the cell migration” and the “Mortality, acute toxicity” value (Acute in vivo toxicity) was “No mortality was observed”. The Mortality (SNB75 cells; [3]) was “none of the mice died”, the Weight loss (SNB75 cells; [3]) was “no weight loss was observed” and the “Growth of the primary tumor” value (SNB75 cells; 10 and 5 mg/kg i.v. (groups B and C), three injections per week, after four weeks, vs control groups) was “a very great reduction in the growth of the primary tumor”. The Development of metastases (SNB75 cells; 10 and 5 mg/kg i.v. (groups B and C), controls all developed metastases in liver and intestine) was “None of the mice treated with compound 3.48a (groups B and C) developed metastases”, the “Metastases in the liver (FIG. 1A)” value (SNB75 cells; a mouse from group B (10 mg/kg), eight weeks after implantation) was “absence of metastases in the liver” and the “Cell migration in brain during treatment” value (Gli4 cells; 10 mg/kg, three injections per week, four-week treatment (formulation 1)) was “made it possible to inhibit cell migration”. The “Cell growth and migration after stopping the treatment” value (Gli4 cells; final six weeks after the four-week treatment at 10 mg/kg) was “resumption of the growth and migration of the cells was observed”, the Complexation in cyclodextrins [2] was “non-complexible in cyclodextrins” and the Solubility ([2]; water, water-soluble solvents) was “insoluble in water, in numerous water-soluble solvents”.

Reference: patent publication US20150376216A1, “SUGAR-ANALOG PHOSPHORUS-CONTAINING HETEROCYCLES HAVING AN ANTI-METASTATIC ACTIVITY” (CENTRE NATIONAL DE LA RECHERCHE SCIENTIRIQUE, priority 2013, published 2015)
